Results from patent US9452997B2, “Piperidine and piperazine derivatives as autotaxin inhibitors” (Merck Patent GmbH, priority 2009, dated 2016).

Each compound was assayed against T1, Recombinant autotaxin (Homo sapiens, UniProt Q13822) (assay: Autotaxin assay (Amplex Red, LPC substrate)). Conditions: recombinant autotaxin, LPC substrate, Amplex Red detection; values given as upper bounds.
T1 construct: made in house; host or cells: Hi5 insect cells (baculovirus)
Assay type: biochemical
Procedure, shortened: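 Recombinant autotaxin (Hi5 baculovirus, 16 ng) pre-incubated with compound 30 min at 22° C, then reacted with 75 μM egg LPC for 90 min at 37° C. Choline released is coupled to H2O2 and Amplex Red fluorescence (ex 485/em 612 nm). IC50 from ten 1:3 dilutions from 30 μM, duplicates, normalised to 500 μM C14 LPA.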

| IC50 [µM] | SMILES |
| --- | --- |
| < 1 | O=C(OCc1ccc(C(F)(F)F)c(F)c1F)N1CCC(N2CCN(C(=O)c3ccc4[nH]nnc4c3)CC2)CC1 [Compound 113, 4-[1-(1H-Benzotriazole-5-carbonyl)-piperidin-4-yl]-piperazine-1-carboxylic acid 2,3-dilfuoro-4-trifluoromethyl-benzyl ester] |
| < 1 | O=C(OCc1c(F)c(F)c(C(F)(F)F)c(F)c1F)N1CCN(C2CCN(C(=O)c3ccc4[nH]nnc4c3)CC2)CC1 [Compound 114, 4-[1-(1H-Benzotriazole-5-carbonyl)-piperidin-4-yl]-piperazine-1-carboxylic acid 2,3,5,6-tetrafluoro-4-trifluoromethyl-benzyl ester] |
| < 1 | O=C(OCc1cccc(C(F)(F)F)c1)N1CCN(C2CCN(C(=O)c3ccc4[nH]nnc4c3)CC2)CC1 [Compound 115, 4-[1-(1H-Benzotriazole-5-carbonyl)-piperidin-4-yl]-piperaizne-1-carboxylic acid 3-trifluoromethyl-benzyl ester] |
| < 1 | O=C(OCc1cc(F)c(F)c(Cl)c1)N1CCN(C2CCN(C(=O)c3ccc4[nH]nnc4c3)CC2)CC1 [Compound 116, 4-[1-(1H-Benzotriazole-5-carbonyl)-piperidin-4-yl]-piperazine-1-carboxylic acid 3-chloro-4,5-difluoro-benzyl ester] |
| < 1 | O=C(OCc1ccc(Cl)c(F)c1)N1CCN(C2CCN(C(=O)c3ccc4[nH]nnc4c3)CC2)CC1 [Compound 117, 4-[1-(1H-Benzotriazole-5-carbonyl)-piperidin-4-yl]-piperazine-1-carboxylic acid 4-chloro-3-fluoro-benzyl ester] |
| < 1 | O=C(OCc1ccc(OC(F)(F)F)c(F)c1)N1CCN(C2CCN(C(=O)c3ccc4[nH]nnc4c3)CC2)CC1 [Compound 118, 4-[1-(1H-Benzotriazole-5-carbonyl)-piperidin-4-yl]-piperazine-1-carboxylic acid 3-fluoro-4-trifluoromethoxy-benzyl ester] |
| < 10 | Cc1ccc(COC(=O)N2CCN(C3CCN(C(=O)c4ccc5[nH]nnc5c4)CC3)CC2)cc1C(F)(F)F [Compound 119, 4-[1-(1H-Benzotriazole-5-carbonyl)-piperidin-4-yl]-piperazine-1-carboxylic acid 4-methyl-3-trifluoromethyl-benzyl ester] |
| < 10 | COc1c(C)cc(COC(=O)N2CCN(C3CCN(C(=O)c4ccc5[nH]nnc5c4)CC3)CC2)cc1C [Compound 120, 4-[1-(1H-Benzotriazole-5-carbonyl)-piperidin-4-yl]-piperazine-1-carboxylic acid 4-methoxy-3,5-dimethyl-benzyl ester] |
| < 30 | COc1cc(COC(=O)N2CCN(C3CCN(C(=O)c4ccc5[nH]nnc5c4)CC3)CC2)cc(OC)c1OC [Compound 121, 4-[1-(1H-Benzotriazole-5-carbonyl)-piperidin-4-yl]-piperazine-1-carboxylic acid 3,4,5-trimethoxy-benzyl ester] |
| < 10 | O=C(NCc1ccc(SC(F)(F)F)cc1)N1CCN(C2CCN(C(=O)c3ccc4[nH]nnc4c3)CC2)CC1 [Compound 122, 4-[1-(1H-Benzotriazole-5-carbonyl)-piperidin-4-yl]-piperazine-1-carboxylic acid 4-trifluoromethylsulfanyl-benzylamide] |
| < 10 | O=C(Cc1ccc(Cl)cc1)C(=O)N1CCN(C2CCN(C(=O)c3ccc4[nH]nnc4c3)CC2)CC1 [Compound 123, 1-{4-[1-(1H-Benzotriazole-5-carbonyl)-piperidin-4-yl]-piperazin-1-yl}-3-(4-chloro-phenyl)-propane-1,2-dione] |
| < 10 | O=C(c1ccc2[nH]nnc2c1)N1CCC(N2CCN(C(=O)c3ccccc3-c3ccc(C(F)(F)F)cc3)CC2)CC1 [Compound 124, (1H-Benzotriazol-5-yl)-{4-[4-(4′-trifluoromethyl-biphenyl-2-carbonyl)-piperazin-1-yl]-piperidin-1-yl}-methanone] |
| < 10 | O=C(c1ccc2[nH]nnc2c1)N1CCC(N2CCN(C(=O)c3ccccc3-c3cccc(C(F)(F)F)c3)CC2)CC1 [Compound 125, (1H-Benzotriazol-5-yl)-{4-[4-(3′-trifluoromethyl-biphenyl-2-carbonyl)-piperazin-1-yl]-piperidin-1-yl}-methanone] |
| < 10 | O=C(OCc1ccc(C(F)(F)F)cc1)N1CCN(C2CCN(C(=O)c3ccc4[nH]c(=O)sc4c3)CC2)CC1 [Compound 126, 4-[1-(2-Oxo-2,3-dihydro-benzothiazole-6-carbonyl)-piperidin-4-yl]-piperazine-1-carboxylic acid 4-trifluoromethyl-benzyl ester] |
| < 10 | O=C(OCc1ccc(C(F)(F)F)cc1)N1CCN(C2CCN(C(=O)c3ccc4[nH]c(=S)[nH]c4c3)CC2)CC1 [Compound 127, 4-[1-(2-Thioxo-2,3-dihydro-1H-benzoimidazole-5-carbonyl)-piperidin-4-yl]-piperazine-1-carboxylic acid 4-trifluoromethyl-benzyl ester] |
| < 1 | O=C(OCc1cccc(OC(F)(F)F)c1)N1CCN(C2CCN(C(=O)c3ccc4[nH]nnc4c3)CC2)CC1 [Compound 128, 4-[1-(1H-Benzotriazole-5-carbonyl)-piperidin-4-yl]-piperazine-1-carboxylic acid 3-trifluoromethoxy-benzyl ester] |
| < 10 | O=C(CCc1cc(F)c(F)c(Cl)c1)N1CCN(C2CCN(C(=O)c3ccc4[nH]nnc4c3)CC2)CC1 [Compound 129, 1-{4-[1-(1H-Benzotriazole-5-carbonyl)-piperidin-4-yl]-piperazin-1-yl}-3-(3-chloro-4,5-difluoro-phenyl)-propan-1-one] |
| < 10 | Cc1c(Br)cc(CCC(=O)N2CCN(C3CCN(C(=O)c4ccc5[nH]nnc5c4)CC3)CC2)cc1Br [Compound 130, 1-{4-[1-(1H-Benzotriazole-5-carbonyl)-piperidin-4-yl]-piperazin-1-yl}-3-(3,5-dibromo-4-methyl-phenyl)-propan-1-one] |
| < 30 | O=C(OCc1cn(-c2ccc(Cl)cc2)nn1)N1CCN(C2CCN(C(=O)c3ccc4[nH]nnc4c3)CC2)CC1 [Compound 131, 4-[1-(1H-Benzotriazole-5-carbonyl)-piperidin-4-yl]-piperazine-1-carboxylic acid 1-(4-chloro-phenyl)-1H-[1,2,3]triazol-4-ylmethyl ester] |
| < 10 | CC(OC(=O)N1CCN(C2CCN(C(=O)c3ccc4[nH]nnc4c3)CC2)CC1)c1ccc(C(F)(F)F)cc1 (stereo not drawn) [Compound 132, 4-[1-(1H-Benzotriazole-5-carbonyl)-piperidin-4-yl]-piperazine-1-carboxylic acid 1-(4-trifluoromethyl-phenyl)-ethyl ester] |
| < 10 | O=C(CCc1cc(Cl)c(F)c(Cl)c1)N1CCC(N2CCN(C(=O)c3ccc4[nH]nnc4c3)CC2)CC1 [Compound 133, 1-{4-[4-(1H-Benzotriazole-5-carbonyl)-piperazin-1-yl]-piperidin-1-yl}-3-(3,5-dichloro-4-fluoro-phenyl)-propan-1-one] |
| < 30 | Cn1nc2ccccc2c1COC(=O)N1CCN(C2CCN(C(=O)c3ccc4[nH]nnc4c3)CC2)CC1 [Compound 134, 4-[1-(1H-Benzotriazole-5-carbonyl)-piperidin-4-yl]-piperazine-1-carboxylic acid 2-methyl-2H-indazol-3-ylmethyl ester] |
| < 1 | O=C(OCc1cc(-c2ccsc2)cs1)N1CCN(C2CCN(C(=O)c3ccc4[nH]nnc4c3)CC2)CC1 [Compound 135, 4-[1-(1H-Benzotriazole-5-carbonyl)-piperidin-4-yl]-piperazine-1-carboxylic acid [3,3′]bithiophenyl-5-ylmethyl ester] |
| < 10 | O=C(OCc1ccc2c(c1)OCO2)N1CCN(C2CCN(C(=O)c3ccc4[nH]nnc4c3)CC2)CC1 [Compound 136, 4-[1-(1H-Benzotriazole-5-carbonyl)-piperidin-4-yl]-piperazine-1-carboxylic acid benzo[1,3]dioxol-5-ylmethyl ester] |
| < 10 | O=C(OCc1ccc2c(c1)OCCO2)N1CCN(C2CCN(C(=O)c3ccc4[nH]nnc4c3)CC2)CC1 [Compound 137, 4-[1-(1H-Benzotriazole-5-carbonyl)-piperidin-4-yl]-piperazine-1-carboxylic acid 2,3-dihydro-benzo[1,4]dioxin-6-ylmethyl ester] |
| < 1 | O=C(Cc1ccc2[nH]nnc2c1)N1CCC(N2CCN(C(=O)OCc3cc(C(F)(F)F)cc(C(F)(F)F)c3)CC2)CC1 [Compound 139, 4-[1-(2-1H-Benzotriazol-5-yl-acetyl)-piperidin-4-yl]-piperazine-1-carboxylic acid 3,5-bis-trifluoromethyl-benzyl ester] |
| < 10 | O=C(Cc1ccc2[nH]nnc2c1)N1CCC(N2CCN(C(=O)Nc3cc(Cl)cc(Cl)c3)CC2)CC1 [Compound 140, 4-[1-(2-1H-Benzotriazol-5-yl-acetyl)-piperidin-4-yl]-piperazine-1-carboxylic acid (3,5-dichloro-phenyl)-amide] |

| SMILES | IC50 [µM] |
| --- | --- |
| O=C(Cc1ccc2[nH]nnc2c1)N1CCC(N2CCN(C(=O)Cc3ccc(C(F)(F)F)cc3)CC2)CC1 [Compound 138, 2-(1H-Benzotriazol-5-yl)-1-(4-{4-[2-(4-trifluoromethyl-phenyl)-acetyl]-piperazin-1-yl}-piperidin-1-yl)-ethanone] | < 10 |
| O=C(Cc1ccc2[nH]nnc2c1)N1CCC(N2CCN(C(=O)Cc3cc(C(F)(F)F)cc(C(F)(F)F)c3)CC2)CC1 [Compound 141, 2-(1H-Benzotriazol-5-yl)-1-(4-{4-[2-(3,5-bis-trifluoromethyl-phenyl)-acetyl]-piperazin-1-yl}-piperidin-1-yl)-ethanone] | < 10 |
| O=C(Cc1cc(C(F)(F)F)cc(C(F)(F)F)c1)N1CCN(C2CCN(C(=O)c3ccc4[nH]c(=O)oc4c3)CC2)CC1 [Compound 142, 6-(4-{4-[2-(3,5-Bis-trifluoromethyl-phenyl)-acetyl]-piperazin-1-yl}-piperidine-1-carbonyl)-3H-benzooxazol-2-one] | < 10 |
